In article PMC11375786, “Induction of Paraptotic Cell Death in Cancer Cells by Triptycene–Peptide Hybrids and the Revised Mechanism of Paraptosis II” (Biochemistry, 2024):
Read-outs that look alike come from different tables or passages of the source. Numbered stars: 1 amine (or outer) side, 2 acyl side, 3 side chain; on linkers, the order of the positions; unused ones are H or OH. Bridge positions count the residues as written; N and C are the ends. Square brackets hold non-standard residues; d marks the D form. Peptide text beside a SMILES is read from it. I, II: the chains in the order shown. X1 = O=C(COc1cccc2c1C1c3c(OCC(=O)NCCCCCCCCN[*:2])cccc3C2c2cccc(OCC(=O)NCCCCCCCCN[*:3])c21)NCCCCCCCCN[*:1]; Cha = N[C@@H](CC1CCCCC1)C(=O)O

Tests used:
[1] = system: Ca^2+ concentrations in mitochondria and cytosol in HeLa-S3 cells; assay: Rhod-2/AM and Rhod-4/AM emission (mitochondrial and cytosolic Ca2+) in HeLa-S3 cells; format: cell-based, human; conditions: 4 5 μM 1 h; for Emission of Rhod-2/AM (mitochondrial Ca2+) in HeLa-S3 cells: celastrol or cisplatin 100 μM 2–6 h
Protocol: (§1) Jurkat, HeLa-S3, and A549 cells (2.0 × 10^5 cells) were preincubated with Rhod-2/AM (final concentration = 5 μM) or Rhod-4/AM (final concentration = 5 μM) in medium under 5% CO2 at 37 °C for 30 min and then treated with 4 (final concentration = 2.5, 5, or 10 μM) for 0, 15, 30, 45, and 60 min. HeLa-S3 and A549 cells were detached by accutase, immediately after which the cells were suspended in 300 μL of cell culture medium and then analyzed on a flow cytometer (FACS Calibur cytometer, Becton), and the data were analyzed using the FlowJo software (FlowJo, LCC).
(§2) Jurkat, HeLa-S3, A549, and IMR90 cells (2.0 × 10^5 cells) were stained with Rhod-2/AM or Rhod-4/AM (final concentration = 5 μM) for 30 min at 37 °C under 5% CO2. The cells were washed with PBS and were treated with 4 (final concentration = 2.5, 5, or 10 μM) in cell culture medium for 30 and 60 min at 37 °C under 5% CO2. To test the effect of celastrol and cisplatin in HeLa-S3 and A549 cells, the cells were incubated with celastrol (final concentration = 100 μM) and cisplatin (final concentration = 100 μM) for 2–6 h. After washing with PBS, the cells were observed via fluorescence microscopy (BZ-X800, Keyence) using a Greiner CELLview Petri dish (35 × 10 mm^2). Emission images were observed using a TRITC filter (excitation 540 nm, emission 605 nm).
(§3) Jurkat, HeLa-S3, A549, and IMR90 cells (8.0 × 10^4 cells) were incubated with CCCP or 2-APB for 1 h and then stained with Rhod-2/AM or Rhod-4/AM (final concentration = 5 μM) for 30 min at 37 °C under 5% CO2. The cells were washed with PBS and were treated with 4 (final concentration = 2.5, 5, or 10 μM) in PBS for 0–60 min at 37 °C in a microplate reader (ARVO, PerkinElmer). Excitation at 540 nm and emission at 590 nm were used for the measurement of Rhod-2/AM and Rhod-4/AM on the microplate reader.

[2] = system: intracellular Zn^2+ in Jurkat cells; assay: Zinquin fluorescence microscopy in Jurkat cells; format: cell-based; conditions: 4 2.5 μM 1 h; celastrol 5 μM, etoposide 5 μM, cisplatin 100 μM 24 h
Protocol: (§4) Jurkat cells (2.0 × 10^5 cells) were treated with 4 (2.5 μM), etoposide (5 μM), cisplatin (100 μM) and celastrol (5 μM) and stained with Mito-FerroGreen (a probe for labile Fe^2+ in mitochondria) (5 μM) and zinquin (a probe for intracellular Zn^2+) (25 μM). The cell images were observed via fluorescence microscopy.

[3] = system: labile Fe^2+ in mitochondria of Jurkat cells; assay: Mito-FerroGreen fluorescence microscopy in Jurkat cells; format: cell-based; conditions: 4 2.5 μM 1 h; celastrol 5 μM, etoposide 5 μM, cisplatin 100 μM 24 h
Protocol: as §4

A549 cells [4] = assay: cells
Protocol: (§5) HeLa S3 cells (human cervical carcinoma) were cultured in Minimum essential medium (MEM) containing 10% FBS, penicillin, and streptomycin. A549 cells (human lung carcinoma) and IMR90 cells (human fetal lung fibroblast) were cultured in Dulbecco’s modified Eagle’s medium (DMEM) with 10% FBS, penicillin, and streptomycin. All cells were cultured at 37 °C under a humidified atmosphere containing 5% CO2.
(§6) Jurkat, HeLa-S3, A549 cells (2.0 × 10^5 cells/mL) and IMR90 cells (1.0 × 10^5 cells/mL) were incubated in the presence of 3–7 for 1 h, and etoposide, cisplatin and celastrol for 24 h (50 μL) in cell culture medium under CO2 at 37 °C in 96-well plates (BD Falcon). MTT reagent (5 mg/mL) in PBS (10 μL) was then added to the cells. After incubation at 37 °C for 4 h, a formazan lysis solution (10% sodium dodecyl sulfate (SDS) in 0.01 N HCl) (100 μL) was added and the resultant solution was incubated overnight under the same conditions, which was followed by measurement of the absorbance at 570 nm using a microplate reader (ARVO, PerkinElmer).

IMR90 cells = assay: cells; conditions: read-out: EC50 against IMR90 cells
Protocol: as §5, §6

HeLa-S3 cells [5] = assay: cells; conditions: read-out: EC50 against HeLa-S3 cells
Protocol: as §5, §6

Jurkat cells [6] = assay: cells; conditions: read-out: EC50 against Jurkat cells
Protocol: as §5, §6

HeLa-S3 cells [7] = assay: MTT assay of HeLa-S3 cells treated with 4 or celastrol in the presence of inhibitors; format: cell-based, human; conditions: 4 5 μM 1 h; Z-VAD-fmk 100 μM, necrostatin-1 100 μM, 3-MA 5 mM, CCCP 160 μM, DIDS 75 or 100 μM
Protocol: (b) HeLa-S3 cells: HeLa-S3 cells (2.0 × 10^5 cells/mL) in MEM medium with 10% FBS were pretreated with the inhibitors (3-MA (5 mM), and DIDS (75 or 100 μM)) for 3 h or pretreated with other inhibitors (Z-VAD-fmk (100 μM), necrostatin-1 (100 μM), CCCP (160 μM), and FCCP (80 μM)) for 1 h under 5% CO2 at 37 °C. After the incubation, 4 (final concentration = 5 μM) was added to the cell suspension, which was then incubated for 1 h at 37 °C. Subsequent procedures were the same as those used for the Jurkat cells.

Jurkat cells [8] = assay: Costaining of ER and mitochondria (ERTracker Red, MitoTracker Green), confocal microscopy, Jurkat cells; format: cell-based; conditions: 4 2.5 μM, CCCP 40 μM
Protocol: (§7) Jurkat, HeLa-S3, A549, and IMR90 cells (2.0 × 10^5 cells) were incubated with 4 (final concentration = 2.5 μM (for Jurkat), 5 μM (for HeLa-S3), 10 μM (for A549) and 5 μM and 50 μM (for IMR90)) in cell culture medium at 37 °C under 5% CO2. After incubation, MitoTracker Green (final concentration = 100 nM (for Jurkat) or 500 nM (for HeLa-S3, A549 and IMR90)), or ERTracker Red (final concentration = 500 nM (for Jurkat) or 1 μM (for HeLa-S3, A549 and IMR90)) were applied for 1 h under the same conditions. After washing with PBS, the cells were observed via confocal fluorescence microscopy (FluoView, FV-1000, Olympus). Excitation at 473 nm and emissions from 485 to 585 nm were used for detecting the MitoTracker Green. Excitation at 559 nm and emissions from 570 to 670 nm were used for detecting the ERTracker Red. Exposure time was 20 μs/pixel.

Jurkat cells [9] = assay: MTT assay of Jurkat cells treated with 4 or celastrol in the presence of inhibitors; format: cell-based; conditions: 4 2.5 μM 1 h; Z-VAD-fmk 15 μM, necrostatin-1 30 μM, 3-MA 10 μM, CCCP 40 μM, DIDS 75 or 100 μM, 2-APB 50 or 100 μM, RuRed 75 μM
Protocol: (a) Jurkat cells: Jurkat cells (2.0 × 10^5 cells/mL) in RPMI 1640 medium with 10% FBS were pretreated with the inhibitors (Z-VAD-fmk (final concentration = 15 μM), necrostatin-1 (final concentration = 30 μM), 3-MA (final concentration = 10 μM), and DIDS (75 or 100 μM)) for 3 h or pretreated with other inhibitors (CCCP (40 μM), FCCP (40 μM), 2-APB (50 or 100 μM) and RuRed (75 μM)) for 1 h under 5% CO2 at 37 °C. After incubation, 4 (final concentration = 2.5 μM) was added to the cell suspension, which was then incubated for 1 h at 37 °C. To test the effect of celastrol, the cells were pretreated with the aforementioned inhibitors and then incubated with celastrol (5 μM) for 24 h. MTT reagent (5 mg/mL) in PBS (10 μL) was added to the cells. After incubation at 37 °C for 4 h, a formazan lysis solution (10% sodium dodecyl sulfate (SDS) in 0.01 N HCl) (100 μL) was added, and the resultant solution was incubated overnight under the same conditions, followed by measurement of the absorbance at 570 nm using a microplate reader (ARVO, PerkinElmer).

A549 cells [10] = assay: MTT assay of A549 cells treated with 4 or celastrol in the presence of inhibitors; format: cell-based, human; conditions: 4 10 μM 1 h; Z-VAD-fmk 100 μM, necrostatin-1 100 μM, 3-MA 1 mM, CCCP 250 μM, DIDS 250 μM
Protocol: (c) A549 cells: A549 cells (2.0 × 10^5 cells/mL) in DMEM medium with 10% FBS were pretreated with the inhibitors (3-MA (1 mM), and DIDS (250 μM)) for 3 h or pretreated with other inhibitors (Z-VAD-fmk (100 μM), necrostatin-1 (100 μM), CCCP (250 μM), and FCCP (10 μM)) for 1 h under 5% CO2 at 37 °C. After incubation, 4 (final concentration = 10 μM) was added to the cell suspension, which was then incubated for 1 h at 37 °C. Subsequent procedures were the same as those used for the Jurkat cells.

trypsin = trypsin (Sus scrofa, UniProt P00761); assay: Stability after treatment with trypsin (RP-HPLC); conditions: 10 μM, trypsin 5 U/mL, 10 mM HEPES pH 7.5, 1 h, 37 °C
Chain of trypsin (P00761 9-231): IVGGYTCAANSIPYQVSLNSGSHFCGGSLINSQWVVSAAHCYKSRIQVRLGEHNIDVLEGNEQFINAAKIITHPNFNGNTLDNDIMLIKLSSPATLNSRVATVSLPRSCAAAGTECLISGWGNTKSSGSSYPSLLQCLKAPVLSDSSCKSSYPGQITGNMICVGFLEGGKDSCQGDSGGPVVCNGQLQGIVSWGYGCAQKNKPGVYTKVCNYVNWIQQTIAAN
Protocol: 4 and 5 (10 μM) were incubated with trypsin (5 U/mL) in 10 mM 2-[4-(2-hydroxyethyl)-1-piperazinyl]ethanesulfonic acid ((HEPES), pH = 7.5) for 1 h at 37 °C and then analyzed via RP-HPLC (CH3CN (0.1% TFA)/H2O (0.1% TFA) = 20/80 to 70/30 (30 min), 1.0 mL/min).

HeLa-S3 cells [11] = assay: Costaining of ER and mitochondria (ERTracker Red, MitoTracker Green), confocal microscopy, HeLa-S3 cells; format: cell-based, human; conditions: 4 5 μM, 5 and 10 min; celastrol 100 μM
Protocol: as §7

A549 cells [12] = assay: Costaining of ER and mitochondria (ERTracker Red, MitoTracker Green), confocal microscopy, A549 cells; format: cell-based, human; conditions: 4 10 μM, 15 min; celastrol 100 μM
Protocol: as §7

[13] = system: Ca^2+ concentrations in mitochondria and cytosol in A549 cells; assay: Rhod-2/AM and Rhod-4/AM emission (mitochondrial and cytosolic Ca2+) in A549 cells; format: cell-based, human; conditions: 4 10 μM 1 h; celastrol 100 μM 2–6 h
Protocol: as §1, §2, §3

[14] = MTT, incubation 24 h (etoposide, cisplatin, celastrol)

## N.N.[Cl][Pt][Cl] [cisplatin]
[1]
  Emission of Rhod-2/AM (mitochondrial Ca2+) in HeLa-S3 cells: weak enhancement
[2]
  Emission from zinquin (intracellular free Zn2+) in Jurkat cells: increases in both free-Fe^2+ and free-Zn^2+
[3]
  Emission from Mito-FerroGreen (free Fe2+ in mitochondria) in Jurkat cells: increases in both free-Fe^2+ and free-Zn^2+
A549 cells [4]; read-out: EC50 against A549 cells, MTT, incubation 24 h (etoposide, cisplatin, celastrol)
  EC50: > 100 µM
IMR90 cells; [14]
  EC50: > 12.5 µM
HeLa-S3 cells [5]; [14]
  EC50: 15 ± 3.4 µM
Jurkat cells [6]; [14]
  EC50: 5.8 ± 1.4 µM

## N#CC(C#N)=NNc1cccc(Cl)c1 [CCCP, carbonyl cyanide 3-chlorophenylhydrazone]
HeLa-S3 cells [7]
  Inhibition of 4-induced cell death in HeLa-S3 cells: considerably inhibited
Jurkat cells [8]
  Inhibition of the 4-induced overlap of emission from MitoTracker Green and ERTracker Red in Jurkat cells: considerably inhibited
Jurkat cells [9]
  Inhibition of 4-induced cell death in Jurkat cells: considerably inhibited
A549 cells [10]
  Inhibition of 4-induced cell death in A549 cells: considerably inhibited

## NCCCC[C@@H]1NC(=O)CNC(=O)[C@H](CCC(=O)NCCCCCCCCNC(=O)COc2cccc3c2C2c4c(OCC(=O)NCCCCCCCCNC(=O)CC[C@@H]5NC(=O)[C@H](CC6CCCCC6)NC(=O)[C@H](CCCCN)NC(=O)[C@H](CCCCN)NC(=O)[C@H](CCCCN)NC(=O)CNC5=O)cccc4C3c3cccc(OCC(=O)NCCCCCCCCNC(=O)CC[C@@H]4NC(=O)[C@H](CC5CCCCC5)NC(=O)[C@H](CCCCN)NC(=O)[C@H](CCCCN)NC(=O)[C@H](CCCCN)NC(=O)CNC4=O)c32)NC(=O)[C@H](CC2CCCCC2)NC(=O)[C@H](CCCCN)NC(=O)[C@H](CCCCN)NC1=O [compound 5] (I: cyclo(KKK[Cha]EG) / II: cyclo(KKK[Cha]EG) / III: cyclo(KKK[Cha]EG); linker I:5-II:5-III:5 via X1)
trypsin
  Stability against trypsin digestion: negligible decomposition
A549 cells [4]; read-out: EC50 against A549 cells, MTT, incubation 1 h at 37 °C
  EC50: 9.5 ± 0.1 µM
IMR90 cells; MTT, incubation 1 h at 37 °C
  EC50: > 25 µM
HeLa-S3 cells [5]; MTT, incubation 1 h at 37 °C
  EC50: 8.5 ± 0.4 µM
Jurkat cells [6]; MTT, incubation 1 h at 37 °C
  EC50: 1.6 ± 0.1 µM

## CC1=C(O)C(=O)C=C2C1=CC=C1[C@@]2(C)CC[C@@]2(C)[C@@H]3C[C@](C)(C(=O)O)CC[C@]3(C)CC[C@]12C [celastrol]
[1]; celastrol 100 μM 2–6 h
  Emission of Rhod-4/AM (cytosolic Ca2+) in HeLa-S3 cells: mitochondrial and cytoplasmic Ca^2+ overload
[1]
  Emission of Rhod-2/AM (mitochondrial Ca2+) in HeLa-S3 cells: mitochondrial and cytoplasmic Ca^2+ overload
[2]
  Emission from zinquin (intracellular free Zn2+) in Jurkat cells: negligibly enhanced
HeLa-S3 cells [11]
  Overlap of emission from MitoTracker Green and ERTracker Red in HeLa-S3 cells: weaker overlap
A549 cells [12]
  Overlap of emission from MitoTracker Green and ERTracker Red in A549 cells: weaker overlap
[3]
  Emission from Mito-FerroGreen (free Fe2+ in mitochondria) in Jurkat cells: negligibly enhanced
[13]
  Emission of Rhod-2/AM (mitochondrial Ca2+) in A549 cells: mitochondrial Ca^2+ overload
  Emission of Rhod-4/AM (cytosolic Ca2+) in A549 cells: negligibly changed
A549 cells [4]; Homo sapiens, A549, read-out: EC50 against A549 cells
  EC50: 31 ± 2.2 µM
IMR90 cells; Homo sapiens, IMR-90, 24 h
  EC50: > 25 µM
HeLa-S3 cells [5]; Homo sapiens, HeLa S3, 24 h
  EC50: 22 ± 6 µM
Jurkat cells [6]; Homo sapiens, Jurkat, 24 h
  EC50: 0.9 ± 0.1 µM
